Test results from patent US7745152B2, “Method for determining genotoxicity” (priority 2004, dated 2010).
Several values for one entry are separate records, joined by “and”; a condition that tells them apart may be missing. Equal values may be shown once.

Tests used:
C2C12 cells [1] = settings: mouse
C2C12 cells [2] = tested on: C2C12 cells
Description: (§1) Three independent replicates were generated for each drug and time point. Sample processing was carried out according to protocols described in the Affymetrix Expression Analysis Technical Manual. Briefly, total RNA was isolated from cells by the acid guanidinium thiocyanate-phenol-chloroform extraction method (Trizol®, Invitrogen, Carlsbad, Calif.). Twice purified poly(A+) RNA was isolated and reverse transcribed using a T7-promoter coupled oligo(dT) primer, followed by in vitro transcription. The labeled samples were applied to the Affymetrix Murine Genome MOE430 set and were hybridized overnight at 45° C./60 rpm, washed using a FS450 Fluidics station, and scanned on a GS3000 scanner. The resulting image files were analyzed using Affymetrix software (Microarray Analysis Suite version 5.0).
(§2) To measure the effect of drug treatment on cellular gene expression, replicate data obtained from each drug and time point were compared with replicates for vehicle-matched controls using the Student t-test. The gene expression levels were Log transformed before applying the Student t-test. The fold change of the average expression level between the control and drug-treated cells was also calculated. […] A gene was considered expressed if the Affymetrix software determined that the gene was “present” in two out of the three replicates. This ensured that true expression changes were identified, and could be distinguished from background variability. Second, the calculated expression change for each of five tested drugs was at least 2 fold, and the calculated p-value for the expression change using the Student t-test was less than 0.01.

C2C12 cells [3] = assay: C2C12 myogenic differentiation after MMS exposure with siRNA transfection; settings: 75 μM MMS, 24 hours, then differentiation media, 72 hours
C2C12 cells [4] = assay: Genomic assay: gene expression analysis (Affymetrix Murine Genome MOE430) in C2C12 cells induced to differentiate
Description: as §1, §2

**Q.** How did the Lowest effective dose (C2C12 cells [1]) turn out when `COS(C)(=O)=O` [Methanesulfonate methyl ester (MMS), Methanesulfonate methyl ester] was run?
**A.** The Lowest effective dose was 0.002 µg/mL.

**Q.** What about the “Fold change in expression: Ephx1, Epoxide hydrolase 1 (microsomal xenobiotic hydrolase)” value (C2C12 cells [2]) of the same compound?
**A.** Its value is 2.10 fold.

**Q.** What about the “Fold change in expression: Hgf, Hepatocyte growth factor (scatter factor)” value (C2C12 cells [2]) of the same compound?
**A.** Its value is 2.20 fold.

**Q.** And the “C2C12 cell differentiation into myotubes after genotoxin exposure” value (C2C12 cells [3])?
**A.** Its value is “completely inhibited”.

**Q.** And the “Fold change in expression: 0610013D04 Rik, RIKEN cDNA” value (C2C12 cells [4])?
**A.** The value was 2.60 fold.

**Q.** What about the “Fold change in expression: 1600013K19 Rik, RIKEN cDNA” value (C2C12 cells [4]) of the same compound?
**A.** The value was 0.62 fold.

**Q.** What about the “Fold change in expression: 2610005B21 Rik, RIKEN cDNA” value (C2C12 cells [4]) of the same compound?
**A.** Its value is 0.53 fold.

**Q.** What about the “Fold change in expression: 2610019I03 RIK, RIKEN cDNA” value (C2C12 cells [4]) of the same compound?
**A.** The value was 0.43 fold.

**Q.** What about the “Fold change in expression: 2610509G12 Rik, RIKEN cDNA” value (C2C12 cells [4]) of the same compound?
**A.** The value was 0.55 fold.

**Q.** What about the “Fold change in expression: 2810417H13 Rik, RIKEN cDNA” value (C2C12 cells [4]) of the same compound?
**A.** Its value is 0.48 fold.

**Q.** What about the “Fold change in expression: 4833427G06 Rik, RIKEN cDNA” value (C2C12 cells [4]) of the same compound?
**A.** The value was 3.70 fold.

**Q.** And the “Fold change in expression: 6530401L14 Rik, RIKEN cDNA” value (C2C12 cells [4])?
**A.** The value was 0.39 fold.

**Q.** What about the “Fold change in expression: 9030617O03 Rik, RIKEN cDNA” value (C2C12 cells [4]) of the same compound?
**A.** The value was 2.40 fold.

**Q.** And the “Fold change in expression: Anxa8, Annexin A8” value (C2C12 cells [4])?
**A.** Its value is 2.50 fold.

**Q.** And the “Fold change in expression: Asflb, ASF1 anti-silencing function 1 homolog B (Saccharomyces)” value (C2C12 cells [4])?
**A.** Its value is 0.47 fold.

**Q.** And the “Fold change in expression: Birc5, Baculoviral IAP repeat-containing 5” value (C2C12 cells [4])?
**A.** Its value is 0.51 fold.

**Q.** And the “Fold change in expression: Brca1, Breast cancer 1” value (C2C12 cells [4])?
**A.** Its value is 0.47 fold.

**Q.** And the “Fold change in expression: Calmbp1, Calmodulin binding protein 1” value (C2C12 cells [4])?
**A.** The value was 0.30 fold.

**Q.** What about the “Fold change in expression: Capn6, Calpain 6” value (C2C12 cells [4]) of the same compound?
**A.** The value was 0.60 fold.

**Q.** What about the “Fold change in expression: Ccna2, Cyclin A2” value (C2C12 cells [4]) of the same compound?
**A.** Its value is 0.46 fold.

**Q.** What about the “Fold change in expression: Ccng1, Cyclin G1” value (C2C12 cells [4]) of the same compound?
**A.** The value was 2.40 fold.

**Q.** What about the “Fold change in expression: Cilp, Cartilage intermediate layer pro” value (C2C12 cells [4]) of the same compound?
**A.** The value was 0.57 fold.

**Q.** What about the “Fold change in expression: Cks2, CDC28 protein kinase regulatory subunit 2” value (C2C12 cells [4]) of the same compound?
**A.** The value was 0.59 fold.

**Q.** What about the “Fold change in expression: D4Ertd421e, DNA segment, Chr 4, ERATO Doi 421, expressed” value (C2C12 cells [4]) of the same compound?
**A.** The value was 0.44 fold.

**Q.** What about the “Fold change in expression: Dda3-pending, Differential display and activated by p53” value (C2C12 cells [4]) of the same compound?
**A.** The value was 3.70 fold.

**Q.** What about the “Fold change in expression: E2f7, E2F transcription factor 7” value (C2C12 cells [4]) of the same compound?
**A.** Its value is 0.55 fold.

**Q.** What about the “Fold change in expression: E030024M05 Rik, RIKEN cDNA” value (C2C12 cells [4]) of the same compound?
**A.** The value was 2.00 fold.

**Q.** What about the “Fold change in expression: E130315B21 Rik, RIKEN cDNA” value (C2C12 cells [4]) of the same compound?
**A.** The value was 0.64 fold.

**Q.** And the “Fold change in expression: Fbxo5, f-box only protein 31” value (C2C12 cells [4])?
**A.** Its value is 0.42 fold.

**Q.** What about the “Fold change in expression: Foxm1, Forkhead box M1” value (C2C12 cells [4]) of the same compound?
**A.** The value was 0.41 fold.

**Q.** And the “Fold change in expression: Gmnn, Geminin” value (C2C12 cells [4])?
**A.** Its value is 0.54 fold.

**Q.** What about the “Fold change in expression: Gnpi, Glucosamine-6-phosphate deaminase” value (C2C12 cells [4]) of the same compound?
**A.** The value was 1.60 fold.

**Q.** And the “Fold change in expression: Hmgb2, High mobility group box 2” value (C2C12 cells [4])?
**A.** Its value is 0.56 fold.

**Q.** And the “Fold change in expression: Hmgb3, High mobility group box 3” value (C2C12 cells [4])?
**A.** The value was 0.45 fold.

**Q.** What about the “Fold change in expression: Hmmr, Hyaluronan mediated motility receptor (RHAMM)” value (C2C12 cells [4]) of the same compound?
**A.** Its value is 0.36 fold.

**Q.** What about the “Fold change in expression: Kifl1, Kinesin 11” value (C2C12 cells [4]) of the same compound?
**A.** Its value is 0.43 fold.

**Q.** What about the “Fold change in expression: Lek1, Leucine, glutamic acid, lysine family 1 protein” value (C2C12 cells [4]) of the same compound?
**A.** The value was 0.36 fold.

**Q.** And the “Fold change in expression: Ly6e, Lymphocyte antigen 6 complex, locus E” value (C2C12 cells [4])?
**A.** Its value is 1.80 fold.

**Q.** And the “Fold change in expression: M-phosph1, M-phase phosphoprotein” value (C2C12 cells [4])?
**A.** Its value is 0.27 fold.

**Q.** What about the “Fold change in expression: MGC:32192, Mus musculus cDNA clone MGC: 32192 IMAGE: 5006129” value (C2C12 cells [4]) of the same compound?
**A.** The value was 0.46 fold.

**Q.** What about the “Fold change in expression: Mad2l1, MAD2 (mitotic arrest deficient, homolog)-like 1 (yeast)” value (C2C12 cells [4]) of the same compound?
**A.** The value was 0.43 fold.

**Q.** What about the “Fold change in expression: Mad3, Max dimerization protein 3” value (C2C12 cells [4]) of the same compound?
**A.** The value was 0.52 fold.

**Q.** What about the “Fold change in expression: Mcm3, Minichromosome maintenance deficient 3 (Saccharomyces)” value (C2C12 cells [4]) of the same compound?
**A.** Its value is 0.56 fold.

**Q.** And the “Fold change in expression: Mcmd4, Minichromosome maintenance deficient 4 homolog” value (C2C12 cells [4])?
**A.** Its value is 0.57 fold.

**Q.** What about the “Fold change in expression: Mki67, Antigen identified by MAb Ki67” value (C2C12 cells [4]) of the same compound?
**A.** Its value is 0.31 fold.

**Q.** What about the “Fold change in expression: Mmhead, Mus musculus 15 day embryo head cDNA clone” value (C2C12 cells [4]) of the same compound?
**A.** Its value is 3.00 fold.

**Q.** And the “Fold change in expression: Nos3, Nitric oxide synthase 3, endothelial cell” value (C2C12 cells [4])?
**A.** Its value is 1.90 fold.

**Q.** And the “Fold change in expression: Np95, Nuclear protein 95” value (C2C12 cells [4])?
**A.** The value was 0.41 fold.

**Q.** What about the “Fold change in expression: Nusap1, Nucleolar and spindle associated protein 1” value (C2C12 cells [4]) of the same compound?
**A.** Its value is 0.48 fold.

**Q.** What about the “Fold change in expression: Osbp16, Oxysterol binding protein-like 6” value (C2C12 cells [4]) of the same compound?
**A.** Its value is 2.20 fold.

**Q.** And the “Fold change in expression: Pbk, PDZ binding kinase” value (C2C12 cells [4])?
**A.** Its value is 0.46 fold.

**Q.** What about the “Fold change in expression: Pcna, Proliferating cell nuclear antigen” value (C2C12 cells [4]) of the same compound?
**A.** The value was 0.60 fold.

**Q.** And the “Fold change in expression: Phex, Phosphate regulating neutral endopeptidase (X chromosome)” value (C2C12 cells [4])?
**A.** Its value is 2.20 fold.

**Q.** And the “Fold change in expression: Plf, Proliferin” value (C2C12 cells [4])?
**A.** Its value is 2.60 fold.

**Q.** And the “Fold change in expression: Pola1, DNA polymerase alpha 1, 180 kDa” value (C2C12 cells [4])?
**A.** Its value is 0.37 fold.

**Q.** What about the “Fold change in expression: Prc1, Protein regulator of cytokinesis 1” value (C2C12 cells [4]) of the same compound?
**A.** Its value is 0.44 fold.

**Q.** What about the “Fold change in expression: Prelp, Proline arginine-rich end leucine-rich repeat” value (C2C12 cells [4]) of the same compound?
**A.** The value was 0.19 fold.

**Q.** And the “Fold change in expression: Prim1, DNA primase, p49 subunit” value (C2C12 cells [4])?
**A.** The value was 0.51 fold.

**Q.** What about the “Fold change in expression: Rad51ap1, RAD51-associated protein 1” value (C2C12 cells [4]) of the same compound?
**A.** Its value is 0.45 fold.

**Q.** What about the “Fold change in expression: Rbl1, Retinoblastoma-like 1 (p107)” value (C2C12 cells [4]) of the same compound?
**A.** The value was 0.59 fold.

**Q.** What about the “Fold change in expression: Serpine1, Ser (or Cys) proteinase inhibitor, clade E, member 1” value (C2C12 cells [4]) of the same compound?
**A.** The value was 0.58 fold.

**Q.** What about the “Fold change in expression: Sesn2, Sestrin 2” value (C2C12 cells [4]) of the same compound?
**A.** The value was 5.30 fold.

**Q.** And the “Fold change in expression: Shcbp1, Shc SH2-domain binding protein 1” value (C2C12 cells [4])?
**A.** Its value is 0.37 fold.

**Q.** And the “Fold change in expression: Slc19a2, Solute carrier family 19 (thiamine transporter), member 2” value (C2C12 cells [4])?
**A.** The value was 2.70 fold and 2.30 fold.

**Q.** And the “Fold change in expression: Slc35a5, Solute carrier family 35, member A5” value (C2C12 cells [4])?
**A.** Its value is 2.60 fold.

**Q.** What about the “Fold change in expression: Smc2l1, SMC2 structural maintenance of chromosomes 2-like 1” value (C2C12 cells [4]) of the same compound?
**A.** Its value is 0.49 fold.

**Q.** What about the “Fold change in expression: Stk18, Serine/threonine kinase 18” value (C2C12 cells [4]) of the same compound?
**A.** Its value is 0.49 fold.

**Q.** What about the “Fold change in expression: Tacc3, Transforming, acidic coiled-coil containing protein 3” value (C2C12 cells [4]) of the same compound?
**A.** The value was 0.48 fold.

**Q.** What about the “Fold change in expression: Tagln, Transgelin (smooth muscle 22 protein)” value (C2C12 cells [4]) of the same compound?
**A.** Its value is 0.47 fold.

**Q.** And the “Fold change in expression: Tk1, Thymidine kinase 1” value (C2C12 cells [4])?
**A.** Its value is 0.46 fold.

**Q.** And the “Fold change in expression: Top2a, Topoisomerase (DNA) II alpha” value (C2C12 cells [4])?
**A.** The value was 0.37 fold.

**Q.** What about the “Fold change in expression: Trp53inp1, Transformation related protein, 53 inducible nuclear protein 1” value (C2C12 cells [4]) of the same compound?
**A.** The value was 2.90 fold.

**Q.** And the “Fold change in expression: Usp30, Ubiquitin specific protease 30” value (C2C12 cells [4])?
**A.** Its value is 3.70 fold.

**Q.** What about the “Fold change in expression: Wig1, Wild-type p53-induced gene 1” value (C2C12 cells [4]) of the same compound?
**A.** Its value is 2.40 fold.
